≈ marks a conversion by molar mass, not a printed value.
Key:
[1] = Octanol-water partition coefficient, logP of the compound after 1 hr by UV-vis spectrophotometric analysis; type: physicochemical
[2] = test system: Staphylococcus aureus; experiment: Antibacterial activity against methicillin resistant Staphylococcus aureus isolate 2 after 18 hrs by microdilution method; type: functional; conditions: isolate 2, 18 h
[3] = test system: Staphylococcus aureus; experiment: Antibacterial activity against methicillin resistant Staphylococcus aureus isolate 3 after 18 hrs by microdilution method; type: functional; conditions: isolate 3, 18 h
[4] = test system: Staphylococcus aureus; experiment: Antibacterial activity against Staphylococcus aureus ATCC 25923 after 18 hrs by microdilution method; type: functional; conditions: ATCC 25923, 18 h
[5] = test system: Staphylococcus aureus; experiment: Antibacterial activity against Staphylococcus aureus ATCC 4163 after 18 hrs by microdilution method; type: functional; conditions: ATCC 4163, 18 h
[6] = test system: Staphylococcus aureus; experiment: Antibacterial activity against methicillin resistant Staphylococcus aureus isolate 4 after 18 hrs by microdilution method; type: functional; conditions: isolate 4, 18 h
[7] = test system: Staphylococcus epidermidis; experiment: Antibacterial activity against Staphylococcus epidermidis ATCC 49134 after 18 hrs by microdilution method; type: functional; conditions: ATCC 49134, 18 h
[8] = test system: Staphylococcus aureus; experiment: Antibacterial activity against methicillin resistant Staphylococcus aureus isolate 5 after 18 hrs by microdilution method; type: functional; conditions: isolate 5, 18 h
[9] = test system: Staphylococcus aureus; experiment: Antibacterial activity against Staphylococcus aureus ATCC 6538 after 18 hrs by microdilution method; type: functional; conditions: ATCC 6538, 18 h
[10] = test system: Staphylococcus epidermidis; experiment: Antibacterial activity against Staphylococcus epidermidis ATCC 12228 after 18 hrs by microdilution method; type: functional; conditions: ATCC 12228, 18 h
[11] = test system: Escherichia coli; experiment: Antibacterial activity against Escherichia coli ATCC 25922 after 18 hrs by microdilution method; type: functional; conditions: ATCC 25922, 18 h
[12] = test system: Pseudomonas aeruginosa; experiment: Antibacterial activity against Pseudomonas aeruginosa NCTC 6749 after 18 hrs by microdilution method; type: functional; conditions: NCTC 6749, 18 h
[13] = test system: Staphylococcus aureus; experiment: Antibacterial activity against methicillin resistant Staphylococcus aureus isolate 1 after 18 hrs by microdilution method; type: functional; conditions: isolate 1, 18 h
[14] = Solubility in water at pH 7 by UV-vis spectrophotometric analysis; type: physicochemical

| Compound | logP at 1 h [1] | MIC [2] [µg/mL] | MIC [3] [µg/mL] | MIC [4] [µg/mL] | MIC [5] [µg/mL] | MIC [6] [µg/mL] | MIC [7] [µg/mL] | MIC [8] [µg/mL] | MIC [9] [µg/mL] | MIC [10] [µg/mL] | MIC [11] [µg/mL] | MIC [12] [µg/mL] | MIC [13] [µg/mL] | solubility [14] [µg/mL] |
| --- | --- | --- | --- | --- | --- | --- | --- | --- | --- | --- | --- | --- | --- | --- |
| CCOC(=O)[C@H](Cc1c[nH]c2ccccc12)NCc1c2c(O)c3c(O)c(C)c4c(c3c1O)C(=O)[C@@](C)(O/C=C/[C@H](OC)[C@@H](C)[C@@H](OC(C)=O)[C@H](C)[C@H](O)[C@H](C)[C@@H](O)[C@@H](C)/C=C/C=C(/C)C(=O)N2)O4 | 2.48 | 0.5 (≈ 0.531 µM) | 0.5 (≈ 0.531 µM) | 1 (≈ 1.06 µM) | 0.5 (≈ 0.531 µM) | 0.5 (≈ 0.531 µM) | 0.063 (≈ 0.0669 µM) | 0.5 (≈ 0.531 µM) | 0.25 (≈ 0.265 µM) | 0.063 (≈ 0.0669 µM) | > 2 | > 2 | 0.5 (≈ 0.531 µM) | 30 (≈ 31.8 µM) |
| CCOC(=O)[C@H](Cc1ccccc1)NCc1c2c(O)c3c(O)c(C)c4c(c3c1O)C(=O)[C@@](C)(O/C=C/[C@H](OC)[C@@H](C)[C@@H](OC(C)=O)[C@H](C)[C@H](O)[C@H](C)[C@@H](O)[C@@H](C)/C=C/C=C(/C)C(=O)N2)O4 | 2.63 | 0.125 (≈ 0.138 µM) | 0.125 (≈ 0.138 µM) | 0.125 (≈ 0.138 µM) | 0.063 (≈ 0.0698 µM) | 0.125 (≈ 0.138 µM) | 0.125 (≈ 0.138 µM) | 0.125 (≈ 0.138 µM) | 0.063 (≈ 0.0698 µM) | 0.063 (≈ 0.0698 µM) | > 2 | > 2 | 0.063 (≈ 0.0698 µM) | 50 (≈ 55.4 µM) |
| CO[C@H]1/C=C/O[C@@]2(C)Oc3c(C)c(O)c4c(O)c(c(CN[C@@H](Cc5ccccc5)C(=O)OCc5ccccc5)c(O)c4c3C2=O)NC(=O)/C(C)=C\C=C\[C@H](C)[C@H](O)[C@@H](C)[C@@H](O)[C@@H](C)[C@H](OC(C)=O)[C@@H]1C | 2.75 |  |  | 2 (≈ 2.07 µM) | 0.5 (≈ 0.518 µM) | 1 (≈ 1.04 µM) | 0.25 (≈ 0.259 µM) | 1 (≈ 1.04 µM) | 0.5 (≈ 0.518 µM) | 0.125 (≈ 0.13 µM) | > 2 | > 2 | 1 (≈ 1.04 µM) | 20 (≈ 20.7 µM) |
| COC(=O)[C@H](Cc1c[nH]c2ccccc12)NCc1c2c(O)c3c(O)c(C)c4c(c3c1O)C(=O)[C@@](C)(O/C=C/[C@H](OC)[C@@H](C)[C@@H](OC(C)=O)[C@H](C)[C@H](O)[C@H](C)[C@@H](O)[C@@H](C)/C=C/C=C(/C)C(=O)N2)O4 | 2.22 |  |  | 0.063 (≈ 0.0679 µM) | 0.031 (≈ 0.0334 µM) | 0.063 (≈ 0.0679 µM) | 0.016 (≈ 0.0172 µM) | 0.063 (≈ 0.0679 µM) | 0.031 (≈ 0.0334 µM) | 0.016 (≈ 0.0172 µM) | > 2 | > 2 | 0.031 (≈ 0.0334 µM) | 60 (≈ 64.7 µM) |
| CCOC(=O)[C@H](CCCNC(=N)N)NCc1c2c(O)c3c(O)c(C)c4c(c3c1O)C(=O)[C@@](C)(O/C=C/[C@H](OC)[C@@H](C)[C@@H](OC(C)=O)[C@H](C)[C@H](O)[C@H](C)[C@@H](O)[C@@H](C)/C=C/C=C(/C)C(=O)N2)O4 | 2.22 | 2 (≈ 2.19 µM) | 2 (≈ 2.19 µM) | > 2 | 1 (≈ 1.1 µM) |  | 0.5 (≈ 0.548 µM) |  | 1 (≈ 1.1 µM) | 0.25 (≈ 0.274 µM) |  |  | 2 (≈ 2.19 µM) | 90 (≈ 98.7 µM) |
| CO[C@H]1/C=C/O[C@@]2(C)Oc3c(C)c(O)c4c(O)c(c(CN[C@@H](Cc5c[nH]c6ccccc56)C(=O)OCc5ccccc5)c(O)c4c3C2=O)NC(=O)/C(C)=C\C=C\[C@H](C)[C@H](O)[C@@H](C)[C@@H](O)[C@@H](C)[C@H](OC(C)=O)[C@@H]1C | 2.72 |  |  | 2 (≈ 1.99 µM) | 1 (≈ 0.996 µM) | 1 (≈ 0.996 µM) | 0.25 (≈ 0.249 µM) | 1 (≈ 0.996 µM) | 1 (≈ 0.996 µM) | 0.25 (≈ 0.249 µM) | > 2 | > 2 | 1 (≈ 0.996 µM) | < 10 |
| CO[C@H]1/C=C/O[C@@]2(C)Oc3c(C)c(O)c4c(O)c(c(/C=N/N5CCN(C)CC5)c(O)c4c3C2=O)NC(=O)/C(C)=C\C=C\[C@H](C)[C@H](O)[C@@H](C)[C@@H](O)[C@@H](C)[C@H](OC(C)=O)[C@@H]1C [RIFAMPIN] |  | 0.016 (≈ 0.0194 µM) | 0.016 (≈ 0.0194 µM) | 0.016 (≈ 0.0194 µM) | 0.008 (≈ 0.00972 µM) | 0.016 (≈ 0.0194 µM) | 0.008 (≈ 0.00972 µM) | 0.016 (≈ 0.0194 µM) | 0.008 (≈ 0.00972 µM) | 0.004 (≈ 0.00486 µM) | > 2 | > 2 | 0.016 (≈ 0.0194 µM) |  |

From ChEMBL document CHEMBL3797048, “Structure-activity relationship studies of new rifamycins containing l-amino acid esters as inhibitors of bacterial RNA polymerases” (Eur J Med Chem, 2016)
